The record followed here is patent US10273224B2, “Substituted pyrimidine compounds, compositions and medicinal applications thereof” (JUBILANT BIOSYS LIMITED, priority 2013, dated 2019).

Molecules are shown by their SMILES. Counter-ions that a name gives are not always drawn.

T1 sequence (P00533 25-1210 T790M/L858R): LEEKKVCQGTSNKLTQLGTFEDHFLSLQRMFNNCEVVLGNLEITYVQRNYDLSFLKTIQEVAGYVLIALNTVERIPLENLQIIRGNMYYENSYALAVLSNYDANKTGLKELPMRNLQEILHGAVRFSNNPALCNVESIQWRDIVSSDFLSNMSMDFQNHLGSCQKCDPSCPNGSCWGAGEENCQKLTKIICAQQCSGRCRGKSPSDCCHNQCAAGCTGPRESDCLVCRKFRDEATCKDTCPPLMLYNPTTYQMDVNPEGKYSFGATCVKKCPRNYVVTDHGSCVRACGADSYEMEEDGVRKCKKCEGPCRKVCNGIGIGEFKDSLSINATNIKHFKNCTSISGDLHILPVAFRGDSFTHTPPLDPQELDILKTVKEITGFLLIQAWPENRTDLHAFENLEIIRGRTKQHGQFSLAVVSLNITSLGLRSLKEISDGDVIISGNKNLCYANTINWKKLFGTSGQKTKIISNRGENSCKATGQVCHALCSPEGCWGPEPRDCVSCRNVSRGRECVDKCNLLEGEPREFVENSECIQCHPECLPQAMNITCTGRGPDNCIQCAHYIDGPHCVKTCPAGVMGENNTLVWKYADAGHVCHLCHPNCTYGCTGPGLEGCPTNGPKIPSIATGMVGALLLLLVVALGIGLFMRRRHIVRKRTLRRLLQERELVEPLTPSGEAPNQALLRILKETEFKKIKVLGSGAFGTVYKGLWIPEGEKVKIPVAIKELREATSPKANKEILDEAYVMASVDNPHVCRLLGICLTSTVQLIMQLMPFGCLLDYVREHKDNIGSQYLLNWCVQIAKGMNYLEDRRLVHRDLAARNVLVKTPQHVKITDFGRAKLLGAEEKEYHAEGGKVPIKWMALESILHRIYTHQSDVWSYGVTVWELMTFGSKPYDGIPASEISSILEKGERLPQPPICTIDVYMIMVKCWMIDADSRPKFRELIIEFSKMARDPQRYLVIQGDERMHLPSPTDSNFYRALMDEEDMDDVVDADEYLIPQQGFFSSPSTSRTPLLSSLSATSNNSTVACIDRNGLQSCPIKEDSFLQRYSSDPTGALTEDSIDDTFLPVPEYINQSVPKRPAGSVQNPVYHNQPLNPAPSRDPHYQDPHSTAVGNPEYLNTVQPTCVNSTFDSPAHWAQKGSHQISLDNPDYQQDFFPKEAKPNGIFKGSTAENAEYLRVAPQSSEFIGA

This assay concerns the target T1, EGFR (L858R & T790M) (Homo sapiens, UniProt P00533, L858R/T790M).
T1 construct: GST; purchased Proqinase
In words: EGFR (L858R & T790M) inhibition assay, HTRF method. The note with it: biochemical HTRF; EGFR (T790M/L858R) 2.5 nM, ATP 5 μM, 60 min room temperature. The method in brief: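 GST-EGFR T790M/L858R (2.5 nM) phosphorylating biotinylated gastrin precursor peptide (0.5 μM) with 5 μM ATP in HEPES pH 7.4/Mg/Mn buffer, 60 min room temperature; compounds from 10 μM top. HTRF read-out (Eu anti-pTyr, SA-APC), 665/620 nm; IC50 from % inhibition.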
In general terms: Time-resolved FRET reads energy transfer from a long-lived donor to a nearby acceptor.
For the compound `C=CC(=O)Nc1cccc(Oc2nc(Nc3cnn(C)c3)ncc2Cl)c1` [Compound I-85, N-(3-((5-chloro-2-((1-methyl-1H-pyrazol-4-yl)amino)pyrimidin-4-yl)oxy)phenyl)acrylamide], the half-inhibitory concentration (IC50) (as a rule, the concentration needed to halve the response being measured) is less than 10 nM.
Next, `C=CC(=O)Nc1cccc(Oc2nc(Nc3c(C)nn(C)c3C)ncc2Cl)c1` [Compound I-84, N-(3-((5-chloro-2-((1,3,5-trimethyl-1H-pyrazol-4-yl)amino)pyrimidin-4-yl)oxy)phenyl)acrylamide]: more than 100 nM; `C=C(C)C(=O)Nc1cccc(Nc2nc(Nc3cnn(C4CCN(C)CC4)c3)ncc2Cl)c1` [Compound I-9, N-(3-((5-chloro-2-((1-(1-methylpiperidin-4-yl)-1H-pyrazol-4-yl)amino)pyrimidin-4-yl)amino)phenyl)methacrylamide]: more than 100 nM; `C=CC(=O)Nc1cccc(Nc2nc(Nc3cnn(CCN(C)C)c3)ncc2Cl)c1` [Compound I-5, N-(3-((5-chloro-2-((1-(2-(dimethylamino)ethyl)-1H-pyrazol-4-yl)amino)pyrimidin-4-yl)amino)phenyl)acrylamide]: 10 to 100 nM.
Next, `C=CC(=O)Nc1cccc(Nc2nc(Nc3cnn(C4CCOCC4)c3)ncc2Cl)c1` [Compound I-45, N-(3-((5-chloro-2-((1-(tetrahydro-2H-pyran-4-yl)-1H-pyrazol-4-yl)amino)pyrimidin-4-yl)amino)phenyl)acrylamide]: 10 to 100 nM; `CN1CCC(n2cc(Nc3ncc(Cl)c(Nc4cccc(NC(=O)C=C5CCCC5)c4)n3)cn2)CC1` [Compound I-30, N-(3-((5-chloro-2-((1-(1-methylpiperidin-4-yl)-1H-pyrazol-4-yl)amino)pyrimidin-4-yl)amino)phenyl)-2-cyclopentylideneacetamide]: more than 100 nM; `C=CC(=O)Nc1cccc(Nc2nc(Nc3cnn(CCOC)c3)ncc2Cl)c1` [Compound I-20, N-(3-((5-chloro-2-((1-(2-methoxyethyl)-1H-pyrazol-4-yl)amino)pyrimidin-4-yl)amino)phenyl)acrylamide]: 10 to 100 nM.
Turning to `C=CC(=O)Nc1cccc(Nc2nc(Nc3cnn(C4CCOC4)c3)ncc2Cl)c1` (centres unmarked) [Compound I-49, N-(3-((5-chloro-2-((1-(tetrahydrofuran-3-yl)-1H-pyrazol-4-yl)amino)pyrimidin-4-yl)amino)phenyl)acrylamide], the IC50 fell in the range of 10 to 100 nM.
Take `C=CC(=O)Nc1cccc(Nc2nc(Nc3c(C)nn(C4CCN(C)CC4)c3C)ncc2Cl)c1` [Compound I-8, N-(3-((5-chloro-2-((3,5-dimethyl-1-(1-methylpiperidin-4-yl)-1H-pyrazol-4-yl)amino)pyrimidin-4-yl)amino)phenyl)acrylamide]: the IC50 is more than 100 nM.
Consider `C/C=C/C(=O)Nc1cccc(Nc2nc(Nc3cnn(C4CCN(C)CC4)c3)ncc2Cl)c1` [Compound I-51, (E)-N-(3-((5-chloro-2-((1-(1-methylpiperidin-4-yl)-1H-pyrazol-4-yl)amino)pyrimidin-4-yl)amino)phenyl)but-2-enamide], for which the IC50 was more than 100 nM.
Take `CN1CCC(n2cc(Nc3ncc(Cl)c(Nc4ccc(F)c(NC(=O)C=C5CCCCC5)c4)n3)cn2)CC1` [Compound I-27, N-(5-((5-chloro-2-((1-(1-methylpiperidin-4-yl)-1H-pyrazol-4-yl)amino)pyrimidin-4-yl)amino)-2-fluorophenyl)-2-cyclohexylideneacetamide]: the 50% inhibitory concentration (IC50) was more than 100 nM.
To `C=CC(=O)Nc1cccc(Nc2nc(Nc3cnn(Cc4cccc(C)n4)c3)ncc2Cl)c1` [Compound I-52, N-(3-((5-chloro-2-((1-((6-methylpyridin-2-yl)methyl)-1H-pyrazol-4-yl)amino)pyrimidin-4-yl)amino)phenyl)acrylamide] belongs more than 100 nM; to `C=CC(=O)Nc1ccc(F)c(N(C)c2nc(Nc3cnn(C)c3)ncc2Cl)c1` [Compound I-111, N-(3-((5-chloro-2-((1-methyl-1H-pyrazol-4-yl)amino)pyrimidin-4-yl)(methyl)amino)-4-fluorophenyl)acrylamide], less than 10 nM.
To `C=CC(=O)Nc1cccc(Oc2nc(Nc3cnn(C4CCN(C)CC4)c3)ncc2Cl)c1` [Compound I-77, N-(3-((5-chloro-2-((1-(1-methylpiperidin-4-yl)-1H-pyrazol-4-yl)amino)pyrimidin-4-yl)oxy)phenyl)acrylamide] belongs 10 to 100 nM; to `C=CC(=O)Nc1cccc(Nc2nc(Nc3ncc(N4CCN(C)CC4)s3)ncc2Cl)c1` [Compound I-40, N-(3-((5-chloro-2-((5-(4-methylpiperazin-1-yl)thiazol-2-yl)amino)pyrimidin-4-yl)amino)phenyl)acrylamide], 10 to 100 nM.
Next, `C=CC(=O)Nc1ccc(F)c(Nc2nc(Nc3cnn(C)c3C)ncc2Cl)c1` [Compound I-71, N-(3-((5-chloro-2-((1,5-dimethyl-1H-pyrazol-4-yl)amino)pyrimidin-4-yl)amino)-4-fluorophenyl)acrylamide]: 10 to 100 nM.
Regarding `CN(C)C/C=C/C(=O)NC1CCCC(Oc2nc(Nc3cnn(C)c3)ncc2Cl)C1` (single isomer, unassigned) [I-90 (Isomer 1), (E)-N-(3-((5-chloro-2-((1-methyl-1H-pyrazol-4-yl)amino)pyrimidin-4-yl)oxy)cyclohexyl)-4-(dimethylamino)but-2-enamide], the IC50 was more than 100 nM.
Take `CN(C)C/C=C/C(=O)NC1CCCC(Oc2nc(Nc3cnn(C)c3)ncc2Cl)C1` (single isomer, unassigned) [I-91 (Isomer 2), (E)-N-(3-((5-chloro-2-((1-methyl-1H-pyrazol-4-yl)amino)pyrimidin-4-yl)oxy)cyclohexyl)-4-(dimethylamino)but-2-enamide]: the IC50 was more than 100 nM.
For `C=CC(=O)N1CCCC(Oc2nc(Nc3cnn(C)c3)ncc2Cl)C1` (single isomer, unassigned) [II-12 (Enantiomer 1), 1-(3-((5-chloro-2-((1-methyl-1H-pyrazol-4-yl)amino)pyrimidin-4-yl)oxy)piperidin-1-yl)prop-2-en-1-one], the IC50 was more than 100 nM.
To `C=CC(=O)Nc1cccc(Nc2nc(Nc3cnn(CCOC)c3C)ncc2Cl)c1` [Compound I-3, N-(3-((5-chloro-2-((1-(2-methoxyethyl)-5-methyl-1H-pyrazol-4-yl)amino)pyrimidin-4-yl)amino)phenyl)acrylamide] belongs 10 to 100 nM; to `C=CC(=O)Nc1cccc(Oc2nc(Nc3cnn(CCOC)c3)ncc2Cl)c1` [Compound I-87, N-(3-((5-chloro-2-((1-(2-methoxyethyl)-1H-pyrazol-4-yl)amino)pyrimidin-4-yl)oxy)phenyl)acrylamide], 10 to 100 nM; to `C=CC(=O)Nc1cccc(Nc2nc(Nc3cnn(C)c3C)ncc2Cl)n1` (single isomer, unassigned) [Compound I-74, N-(6-((5-chloro-2-((1,5-dimethyl-1H-pyrazol-4-yl)amino)pyrimidin-4-yl)amino)pyridin-2-yl)acrylamide], more than 100 nM.
Take `CN1CCC(n2cc(Nc3ncc(Cl)c(Nc4cccc(NC(=O)C=C5CCOCC5)c4)n3)cn2)CC1` [Compound I-26, N-(3-((5-chloro-2-((1-(1-methylpiperidin-4-yl)-1H-pyrazol-4-yl)amino)pyrimidin-4-yl)amino)phenyl)-2-(dihydro-2H-pyran-4(3H)-ylidene)acetamide]: the IC50 is more than 100 nM.
As to `C=CC(=O)N(C)c1ccc(F)c(Nc2nc(Nc3cnn(C)c3)ncc2Cl)c1` [Compound I-110, N-(3-((5-chloro-2-((1-methyl-1H-pyrazol-4-yl)amino)pyrimidin-4-yl)amino)-4-fluorophenyl)-N-methylacrylamide], the IC50 was more than 100 nM.
Regarding `C=CC(=O)NC1CCCC(Nc2nc(Nc3cc(COC)n(C)n3)ncc2Cl)C1` (centres unmarked) [Compound I-98, N-(3-((5-chloro-2-((5-(methoxymethyl)-1-methyl-1H-pyrazol-3-yl)amino)pyrimidin-4-yl)amino)cyclohexyl)acrylamide], the IC50 is more than 100 nM.
For `C=C(F)C(=O)Nc1cccc(Nc2nc(Nc3cnn(C)c3)ncc2Cl)c1` [Compound I-33, N-(3-((5-chloro-2-((1-methyl-1H-pyrazol-4-yl)amino)pyrimidin-4-yl)amino)phenyl)-2-fluoroacrylamide], the IC50 was more than 100 nM.
As for `C=CC(=O)NC1CCCC(Nc2nc(Nc3cnn(C)c3)ncc2Cl)C1` (centres unmarked) [Compound I-126, N-(3-((5-chloro-2-((1-methyl-1H-pyrazol-4-yl)amino)pyrimidin-4-yl)amino)cyclohexyl)acrylamide 4-methylbenzenesulfonate], the IC50 was more than 100 nM.
Consider `C=CC(=O)NC1CCC(Nc2nc(Nc3cnn(C)c3)ncc2Cl)C1` (centres unmarked) [Compound I-93, N-(3-((5-chloro-2-((1-methyl-1H-pyrazol-4-yl)amino)pyrimidin-4-yl)amino)cyclopentyl)acrylamide], for which the IC50 was more than 100 nM.
To `C=CC(=O)Nc1cccc(Nc2nc(Nc3cc(CN4CCC4)n(C)n3)ncc2Cl)c1` [Compound I-42, N-(3-((2-((5-(azetidin-1-ylmethyl)-1-methyl-1H-pyrazol-3-yl)amino)-5-chloropyrimidin-4-yl)amino)phenyl)acrylamide, acetate salt] belongs more than 100 nM; to `C=CC(=O)Nc1cccc(Oc2nc(Nc3cnn(CCO)c3)ncc2Cl)c1` [Compound I-47, N-(3-((5-chloro-2-((1-(2-hydroxyethyl)-1H-pyrazol-4-yl)amino)pyrimidin-4-yl)oxy)phenyl)acrylamide], less than 10 nM; to `C=CC(=O)Nc1cccc(Nc2nc(Nc3cnn(C4CCN(C)CC4)c3)ncc2C(F)(F)F)c1` [Compound I-14, N-(3-((2-((1-(1-methylpiperidin-4-yl)-1H-pyrazol-4-yl)amino)-5-(trifluoromethyl)pyrimidin-4-yl)amino)phenyl)acrylamide], more than 100 nM.
In the case of `C=CC(=O)N[C@H]1CCC[C@@H](Nc2nc(Nc3cnn(C)c3)ncc2Cl)C1` (single isomer, unassigned) [I-104 (Enantiomer 3)], the IC50 is 10 to 100 nM.
